In patent publication US4382889A, “Epoxysuccinic acid derivatives” (Taisho Pharmaceutical Co., Ltd., priority 1979, dated 1983):
Structures can show the parent of a compound that is named as a salt.

How the values were obtained:
[1] = target: T1, papain (Carica papaya, UniProt P00784); assay: Papain inhibitory activity (method of K. Hanada et al); format: biochemical; details: papain 80 ug/ml, Sigma, 2 x cry.
T1 construct: purchased Sigma Chem. Co
T1 sequence (P00784 134-345): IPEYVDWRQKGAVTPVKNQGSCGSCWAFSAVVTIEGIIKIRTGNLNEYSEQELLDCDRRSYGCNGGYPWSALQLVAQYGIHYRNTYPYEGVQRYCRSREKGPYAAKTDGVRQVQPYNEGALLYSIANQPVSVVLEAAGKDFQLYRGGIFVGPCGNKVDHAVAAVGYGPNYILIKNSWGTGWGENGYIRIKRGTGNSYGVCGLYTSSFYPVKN
Description: Papain inhibitory activity of the compounds of the present invention was assayed by the method of K. Hanada et al, [Argric. Biol. Chem., 42, No. 3, 523(1978)] using papain (80 ug/ml, Sigma Chem. Co., 2 x cry.).

[2] = Concentration of test compound in rat plasma after subcutaneous administration; format: in vivo; details: sc, 50 mg/kg, an hour after administration
Description: The compounds of the present invention are better absorbed by the subcutaneous route in mammals such as rats or rabbits, as compared with the epoxysuccinic acid derivatives of the German Patent Laid Open Application described above and Chemical Abstracts, 87, 68129a (1977). To determine absorption, these compounds were administered subcutaneously to rat at a dose of 50 mg/kg, and the concentration of the test compound in rat plasma at an hour after the administration was shown in Table 1.

[3] = target: T2, calcium-activated neutral thiolprotease (CANP) (Gallus gallus, UniProt P00789); assay: CANP inhibitory activity (method of Ishiura et al); format: biochemical; details: 50% inhibition as molar ratio to the enzyme; CANP from muscle of hereditary muscular dystrophy chicken
T2 construct: CANP prepared from a muscle of hereditary muscular dystrophy chicken; from tissue; host or cells: muscle of hereditary muscular dystrophy chicken
T2 sequence (P00789 1-705): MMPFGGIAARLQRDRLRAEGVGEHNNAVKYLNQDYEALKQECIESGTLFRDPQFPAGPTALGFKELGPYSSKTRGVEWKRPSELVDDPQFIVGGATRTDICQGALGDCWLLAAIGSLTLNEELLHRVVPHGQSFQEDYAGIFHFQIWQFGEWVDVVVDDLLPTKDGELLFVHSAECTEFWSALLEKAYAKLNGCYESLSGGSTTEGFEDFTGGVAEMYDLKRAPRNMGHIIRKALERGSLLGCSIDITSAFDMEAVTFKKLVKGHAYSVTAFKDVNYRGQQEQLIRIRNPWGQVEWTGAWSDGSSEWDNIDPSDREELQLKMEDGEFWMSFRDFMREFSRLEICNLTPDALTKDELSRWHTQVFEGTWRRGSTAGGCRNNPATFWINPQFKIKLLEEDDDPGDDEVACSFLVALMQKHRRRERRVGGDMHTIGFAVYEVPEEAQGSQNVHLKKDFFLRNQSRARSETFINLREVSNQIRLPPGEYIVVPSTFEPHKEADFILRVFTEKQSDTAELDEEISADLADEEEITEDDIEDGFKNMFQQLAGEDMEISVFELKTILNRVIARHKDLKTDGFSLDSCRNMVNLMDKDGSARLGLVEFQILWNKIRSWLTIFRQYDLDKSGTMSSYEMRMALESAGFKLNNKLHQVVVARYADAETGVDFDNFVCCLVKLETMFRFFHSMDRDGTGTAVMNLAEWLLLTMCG
Description: Their muscular dystrophy inhibitory activity was assayed by the method of Ishiura et al, [J. of Biochem., 84, 225(1978)] using CANP prepared from a muscle of hereditary muscular dystrophy chicken, and the resulting value for 50% inhibition in the molar ratios for the enzyme expressed as ID50 (mole/mole) is shown in Table 1.

SMILES: COC(=O)[C@H](CC(C)C)NC(=O)[C@H](Cc1ccccc1)NC(=O)C1OC1C(=O)OCc1ccccc1 (stereo partly drawn) [Compound 36]
- Papain ID50 (amount of inhibitor for 50% inhibition) [1]: 0.595 µg
- concentration at 1 h [2]: 1800 ng/mL
- CANP Inhibitory Activity ID50 (mole/mole) [3]: 200 mole/mole

SMILES: CC[C@H](C)[C@H](NC(=O)C1OC1C(=O)OCc1ccccc1)C(=O)N(C)Cc1ccccc1 (mixture of isomers) [Compound 12, N-[N'-(DL-3-trans-benzyloxycarbonyloxirane-2-carbonyl)-L-isoleucyl]-N-methylbenzylamine]
- Papain ID50 (amount of inhibitor for 50% inhibition) [1]: 0.260 µg
- concentration at 1 h [2]: 1300 ng/mL
- CANP Inhibitory Activity ID50 (mole/mole) [3]: 65 mole/mole

SMILES: CC(C)C[C@H](NC(=O)C1OC1C(=O)O)C(=O)NC(C)C (mixture of isomers) [Compound 15, N-[N'-(DL-3-trans-carboxyoxirane-2-carbonyl)-L-leucyl]isopropylamine potassium salt]
- Papain ID50 (amount of inhibitor for 50% inhibition) [1]: 0.112 µg
- concentration at 1 h [2]: 20000 ng/mL
- CANP Inhibitory Activity ID50 (mole/mole) [3]: 35 mole/mole

SMILES: CC(C)C[C@H](NC(=O)C1OC1C(=O)OCc1ccccc1)C(=O)N[C@@H](CCCNC(=O)OCc1ccccc1)C(=O)OCc1ccccc1 (mixture of isomers) [Compound 30, N-(DL-3-trans-benzyloxycarbonyloxirane-2-carbonyl)-L-leucyl-δ-carbobenzoxy-L-ornithine benzyl ester]
- Papain ID50 (amount of inhibitor for 50% inhibition) [1]: 0.391 µg
- concentration at 1 h [2]: 2000 ng/mL
- CANP Inhibitory Activity ID50 (mole/mole) [3]: 100 mole/mole

SMILES: COC(=O)[C@H](CCCN=C(N)N)NC(=O)[C@H](CC(C)C)NC(=O)C1OC1C(=O)O (mixture of isomers) [Compound 43, N-(DL-3-transcarboxyoxirane-2-carbonyl)-L-leucyl-L-arginine methyl ester]
- Papain ID50 (amount of inhibitor for 50% inhibition) [1]: 0.195 µg
- concentration at 1 h [2]: 7000 ng/mL
- CANP Inhibitory Activity ID50 (mole/mole) [3]: 100 mole/mole

SMILES: CC(C)C[C@H](NC(=O)C1OC1C(=O)O)C(=O)NCCc1ccccc1 (mixture of isomers) [Compound 16, N-[N'-(DL-3-trans-carboxyoxirane-2-carbonyl)-L-leucyl]phenethylamine potassium salt]
- Papain ID50 (amount of inhibitor for 50% inhibition) [1]: 0.123 µg
- concentration at 1 h [2]: 12000 ng/mL
- CANP Inhibitory Activity ID50 (mole/mole) [3]: 90 mole/mole
